Values of other authors in patent publication US20160030582A1 (MAYNE PHARMA INTERNATIONAL PTY. LTD., priority 2012, published 2016).
Read-outs that look alike come from different tables or passages of the source.

Columns and labels:
[1] = test system: typical infecting organisms for specific superficial and systemic mycoses; design: MIC90: unit not given here; conditions: for MIC RANGE: in µg/mL
[2] = Aspergillosis, A. flavus complex
[3] = Aspergillosis, A. fumigatus complex
[4] = Aspergillosis, A. nidulans complex
[5] = Aspergillosis, A. niger complex
[6] = Aspergillosis, A. terreus complex
[7] = tinea capitis, Microsporum sp. (audounti, canis, gypseum, ferrugineum et al.)
[8] = tinea capitis, Trichophyton sp. (tonsurans violaceum, soudanese, schoenleinii, mentagrophytes, verrucossum, et al.)
[9] = tinea corporis, Epidermophyton floccosum
[10] = tinea corporis, Microsporum sp. (canis, gypseum, et al.)
[11] = tinea corporis, Trichophyton sp. (rubrum, tonsurans interdigitale, mentagrophytes, concentricim, violaceum et al.)
[12] = tinea cruris, Epidermophyton floccosum
[13] = tinea cruris, Microsporum sp. (canis, et al.)
[14] = tinea cruris, Trichophyton sp. (rubrum, tonsurans interdigitale, mentagrophytes, et al.)
[15] = tinea manuum, Epidermophyton floccosum
[16] = tinea manuum, Trichophyton sp. (rubrum, interdigitale, mentagrophytes.)
[17] = tinea pedis, Epidermophyton floccosum
[18] = tinea pedis, Microsporum sp. (canis, gypseum, et al.)
[19] = tinea pedis, Trichophyton sp. (rubrum, tonsurans interdigitale, mentagrophytes, et al.)
[20] = tinea unguium, Epidermophyton floccosum
[21] = tinea unguium, Microsporum sp. (canis, et al.)
[22] = tinea unguium, Trichophyton sp. (rubrum, tonsurans interdigitale, mentagrophytes, et al.)

CCC(C)n1ncn(-c2ccc(N3CCN(c4ccc(OCC5COC(Cn6cncn6)(c6ccc(Cl)cc6Cl)O5)cc4)CC3)cc2)c1=O (centres unmarked) [itraconazole]
50-70%: reduction of Cmax and AUC in the fasting state (compared to administration after a light meal)
0.03-16: MIC RANGE [1, 3]
0.008-16: MIC RANGE ([1]; Candidiasis, C. glabrata)
22 h: expected apparent plasma terminal elimination half-life (t½) (basis for sampling schedule of Example 12)
MIC90 = 0.125: MIC90 ([1]; Candidiasis, C. albicans) | MIC90 [1, 9] | MIC90 [1, 12] | MIC90 [1, 15] | MIC90 [1, 17] | MIC90 [1, 20]
0.01-8: MIC RANGE [1, 8] | MIC RANGE [1, 9] | MIC RANGE [1, 11] | MIC RANGE [1, 12] | MIC RANGE [1, 14] | MIC RANGE [1, 15] | MIC RANGE [1, 16] | MIC RANGE [1, 17] | MIC RANGE [1, 19] | MIC RANGE [1, 20] | MIC RANGE [1, 22]
0.008-8: MIC RANGE ([1]; Candidiasis, C. albicans) | MIC RANGE ([1]; Candidiasis, C. kruset)
0.3-16: MIC RANGE ([1]; Pityriasis versicolor, Malassezia sp. (florfur, globosa, obtuse, sympodialis etc).)
3-18%: excreted unchanged in the feces (oral dose)
MIC90 = 0.5: MIC90 [1, 2] | MIC90 [1, 3] | MIC90 [1, 5]
0.03-1: MIC RANGE [1, 6]
0.01-4: MIC RANGE [1, 7] | MIC RANGE [1, 10] | MIC RANGE [1, 13] | MIC RANGE [1, 18] | MIC RANGE [1, 21]
MIC90 = 0.25: MIC90 [1, 4] | MIC90 [1, 6]
MIC90 = 0.25-0.5: MIC90 [1, 7] | MIC90 [1, 8] | MIC90 [1, 10] | MIC90 [1, 11] | MIC90 [1, 13] | MIC90 [1, 14] | MIC90 [1, 16] | MIC90 [1, 18] | MIC90 [1, 19] | MIC90 [1, 21] | MIC90 [1, 22]
0.03-8: MIC RANGE [1, 2] | MIC RANGE [1, 4] | MIC RANGE [1, 5] | MIC RANGE ([1]; Candidiasis, C. tropicalis) | MIC RANGE [1]
MIC90 = 0.06: MIC90 [1]
